# Like-named read-outs stand apart in the source and are kept apart here.
# What was measured:
# Staphylococcus aureus = experiment: Antimicrobial assay, minimal inhibitory concentration; type: cell-based
# Description: (§1) To examine the antimicrobial potential of the nucleotide mimics of the present invention an assay was employed that allowed the screening of a large number of compounds simultaneously. The type of bacteria chosen to screen the compounds are organisms associated with human disease and represent major groups of bacteria based on their structure and metabolism. Bacterial cultures of Escherichia coli and Staphylococcus aureus were incubated overnight at 37° C. in a shaker incubator. A lawn of each overnight bacterial culture was made by plating […] of bacteria on agar plates containing Nutrient Broth. Immediately after plating, sterile blank paper discs were put on top of the lawn and a compound was applied to each blank paper disc. Plates were then incubated overnight and examined for the inhibition of bacterial growth the following day. […] The plates were incubated overnight at 37° C. and then examined spectrophotometrically at 600 nm to determine the minimum concentration of each compound that inhibited replication of bacteria as determined by no increase in absorbance at 600 nm.
# in vitro [1] = experiment: in vitro
# Description: Typically the total volume used for the experiment was 500 μl. The final concentrations of the reaction components were as follows:
# The reacton mixtures were made up and incubated at 37° C. At appropriate times aliquots of 25 μl were removed and added to 65 μl ice-cold methanol. These solutions were our at −20° C. and typically overnight. After incubation samples were inutes at high speed in a microcentrifuge. The supernatant was nd the extract was dried under vacuum in a LabConco Centrivap Concentrator. The dried extracts were resuspended in dH2O and filtered to remove particulate before analysis on reverse phase HPLC.
# The reverse phase HPLC columns used for the analysis were either a Phenomenex C18 Aqua column (2×100 mm) or the Phenomenex C18 Aqua column (3×150 mm) used with the appropriate guard column. The HPLC was run at 0.2 ml/min (for the 2×100 mm column) or at 0.5 ml/min (for the 3×150 mm column) with the following buffer system: 5 mM tetrabutylammonium acetate, 50 mM ammonium phosphate, and an acetonitrile gradient running from 5% up to as high as 60%. The amount of remaining parent compound at each time point was used to determine the half-life of the compound. […] Unmodified nucleoside triphosphates were used as positive controls.
# Escherichia coli = experiment: Antimicrobial assay, minimal inhibitory concentration; type: cell-based; details: for MIC: Escherichia coli, read-out: E. coli MIC
# Description: as §1
# [2] = target: T1, HIV Reverse Transcriptase (Type B, 66 kDa subunit) (Human immunodeficiency virus type 1 group M subtype B, UniProt P04585); experiment: HIV Reverse Transcriptase inhibition assays (RNA-directed DNA polymerization, PicoGreen fluorescence); type: biochemical; details: Table 1; template (homopolymer or heteropolymer RNA) not stated; read-out: Ki, Inhibition of HIV Reverse Transcriptase by Nucleotide Mimics
# T1 construct: purified HIV Reverse Transcriptase (Type B, 66 kDa subunit)
# Description: The assays employed to measure inhibition of HIV Reverse Transcriptase (HIV RT) catalyzed/RNA-directed DNA polymerization are described below. The effectiveness of the compounds of the present invention as inhibitors of HIV RT-catalyzed DNA polymerization was measured in the following assays.
# This assay was used to measure the ability of the nucleotide mimics of the present invention to inhibit the enzymatic synthesis of complementary strand DNA from a DNA-primed template of homopolymeric RNA. This assay is a modification of a published procedure (Seville, et al., “Fluorometric Assay for DNA Polymerases and Reverse Transcriptase”, BioTechniques 1996, 21, 664-72).
# The compounds were tested at various concentrations up to 500 μM final concentration. DNA polymerase activity was measured in a reaction buffer containing primed-RNA template and dTTP diluted to appropriate concentrations in assay buffer. Nucleotide mimics of the present invention were diluted in buffer and pipetted into the wells of a 96-well plate. The reaction was initiated by addition of enzyme and allowed to proceed at 37° C. for 10 minutes. The reaction was quenched by addition of 5 μL 0.2 M EDTA, pH 8.0.
# 200 μL of diluted PicoGreen dsDNA Quantitation Reagent (Molecular Probes, Inc, Eugene, Oreg.) was added to each well of a 96-well plate and incubated at room temperature for 5 minutes. Plate wells were read on a microplate fluorometer (Molecular Devices Corp., Sunnyvale, Calif.). The wells were excited at 480 nm and the fluorescence emission intensity (RFU) was measured at 520 nm. The percentage of inhibition was calculated according to the following equation:
# % Inhibition=[1−(RFU in test reaction−RFU in blank)/(RFU in control reaction−RFU in blank)]×100.
# Each inhibitor was titrated over an appropriate range of concentrations, and inhibition constants were determined using the following equations:
# v=Vm[S]/(Km(1+[I]/Ki)+[S])
# Certain compounds of the present invention were also tested to determine their ability to inhibit HIV RT-catalyzed DNA polymerization on a heteropolymeric primed-RNA template in the presence of all four natural deoxynucleotide triphosphate (dNTP) substrates. This assay is a modification of a published procedure (Parker et al., “Mechanism of Inhibition of Human Immunodeficiency Virus Type 1 Reverse Transcriptase and Human DNA Polymerases α, β, and γ by the 5′-Triphosphates of Carbovir,3′-Azido-3′-deoxythymidine,2′-3′-Dideoxyguanosine, and 3′-Deoxythymidine”, J. Biol. Chem. 1991, 266 (3), 1754-62).
# HIV RT DNA polymerase activity was measured in a reaction buffer containing primed-ribosomal RNA template and dNTPs diluted to appropriate concentrations in assay buffer and pipetted into 1.5 mL microcentrifuge tubes. Nucleotide mimics of the present invention were diluted in buffer and tested at various concentrations up to 5 μM final concentration. The reaction was initiated by addition of enzyme and allowed to proceed at 42° C. for 60 to 90 minutes. The reaction was quenched by addition of 12 μL 0.2 M EDTA, pH 8.0.
# 50 μL each of reaction was transferred to the well of a 96-well plate (in duplicate). 200 μL of diluted PicoGreen dsDNA Quantitation Reagent was added to each well of a 96-well plate and incubated at room temperature for 5 minutes. Plate wells were read on a microplate fluorometer. The wells were excited at 480 nm and the fluorescence emission intensity (RFU) was measured at 520 nm. The percentage of inhibition and inhibition constants […] were determined for representative compounds as described above.
# in vitro [3] = details: for half-life at 500 μM: pH 7.4; for Half-Life, Cell Extract Half-Lives of Gemcitibine 5'-Methylendiphosphonate and its Prodrugs: Table 11
# Description: The stability of compounds in cell extracts was examined as follows:
# Cell lysis buffer was added to cell pellets and the cells frozen and thawed 3× using dry ice. The lysis buffer (LB) was composed of the following: 50 mM Tris-HCl, pH 7.4 (100 μl/ml 10× stock), 20% glycerol (200 μl/ml), and 0.5% Triton X-100 (5 μl/ml). 100 μl of LB was added to each microfuge tube containing 10^7 frozen CEM cells. After the cells were lysed the extracts were centrifuged at high speed in a microcentrifuge for 5 minutes and the clarified cell extract transferred to a new tube. The cell stability reaction mixtures contained concentrations of buffer, magnesium, nucleotide, and cell extract as shown below:
# The reaction mixtures were incubated at 37° C. At each time point, including at time zero, 12.5 μl aliquots were added to 40 μl ice-cold methanol. […] The samples were incubated in methanol for at least 60 minutes and typically overnight at −20° C. prior to further processing. The cell extracts were centrifuged at high speed in refrigerated microcentrifuge for 20 minutes and the supernatant transferred to a new tube. The extract was then dried under vacuum in a LabConco Centrivap Concentrator. The samples were then resuspended in 40 or 50 μl dH2O, filtered to remove any particulate, and analyzed by reverse phase HPLC.
# The reverse phase HPLC columns used for the analysis were either a Phenomenex C18 Aqua column (2×100 mm) or the Phenomenex C18 Aqua column (3×150 mm) used with the appropriate guard column. The HPLC flow rate was either 0.2 ml/min (for the 2×100 mm column) or 0.5 ml/min (for the 3×150 mm column) with the following buffer system: 5 mM tetrabutylammonium acetate, 50 mM ammonium phosphate, and an acetonitrile gradient running from 5% up to as high as 60%. The amount of remaining parent compound at each time point was used to determine the half-life of the compound. […] Unmodified nucleoside triphosphates were used as positive controls.
# [4] = overnight at 37° C., tested 0-200 μg/ml, NA = Not active
# [5] = value in brackets beside the μg/ml value
# [6] = 50% CEM cell extract, 37° C., 500 μM, time points through 48 hours
molecule,measurement,setting,value
"2′-Deoxy-2′,2′-difluorocytidine 5′-β-O—(S-pivaloyl-2-thioethyl) -α,β-methylene-diphosphonate [Compound 75]",S. aureus MIC,Staphylococcus aureus; [4],15 µg/mL
same,S. aureus MIC,Staphylococcus aureus; [5],(26) μM
"3′-Azido-3′-deoxythymidine 5′-α-P-borano-β,γ-imidotriphosphate [Compound 23]","Half-Life, Serum Half-Lives of NTPs and AZT Triphosphate Mimics","in vitro [1]; bovine, serum",36 h
same,E. coli MIC,Escherichia coli; [4],50 to 100 µg/mL
same,E. coli MIC,Escherichia coli; [5],(99-198) uM
same,Ki,[2],105 nM
"[BH3-][P+](O)(OCC1OC(n2cc(C)c(=O)[nH]c2=O)CC1N=[N+]=[N-])OP(=O)(O)C(Cl)(Cl)P(=O)(O)O (single isomer, unassigned) [Compound 26-isomer 2, 3′-Azido-3′-deoxythymidine 5′-α-P-borano-β,γ-(dichloromethylene)triphosphate]",half-life at 500 μM,"in vitro [1]; bovine, serum, Serum Half-Lives of NTPs and AZT Triphosphate Mimics",48 h
same,MIC,Escherichia coli; [4],10 µg/mL
same,MIC,Escherichia coli; [5],17.5 µM
same,half-life at 500 μM,in vitro [3]; human,> 48 h
same,Ki,[2],74 nM
"[BH3-][P+](O)(OCC1OC(n2cc(C)c(=O)[nH]c2=O)CC1N=[N+]=[N-])OP(=O)(O)C(F)(F)P(=O)(O)O (single isomer, unassigned) [Compound 27-isomer 2, 3′-Azido-3′-deoxythymidine 5′-α-P-borano-β,γ-(difluoromethylene)triphosphate]",E. coli MIC,Escherichia coli; [4],50 µg/mL
same,E. coli MIC,Escherichia coli; [5],(93) uM
same,Ki,[2],61 nM
"BP(=O)(OC[C@@H]1O[C@H](n2cc(C)c(=O)[nH]c2=O)C[C@H]1N=[N+]=[N-])OP(=O)(O)C(Cl)(Cl)P(=O)(O)O (single isomer, unassigned; isomer 1) [Compound 26-isomer 1, 3′-Azido-3′-deoxythymidine 5′-α-P-borano-β,γ-(dichloromethylene)triphosphate]","Half-Life, Serum Half-Lives of NTPs and AZT Triphosphate Mimics","in vitro [1]; bovine, serum",45 h
same,E. coli MIC,Escherichia coli; [4],12 µg/mL
same,E. coli MIC,Escherichia coli; [5],(21) uM
same,"Half-Life, Cell extract Half-Lives of AZT Triphosphate Mimics",in vitro [3]; human,>48 h
same,Ki,[2],93 nM
"Nc1ncnc2c1ncn2[C@@H]1O[C@H](COP(=O)(O)OP(=O)(O)OP(=O)(O)O)[C@@H](O)[C@H]1O [Adenosine Triphosphate, reference compound]","Half-Life, Serum Half-Lives of NTPs and AZT Triphosphate Mimics","in vitro [1]; Table 6, 50% fetal calf serum, 37° C., 500 μM, time points through 48 hours",2 h
same,half-life at 500 μM,"in vitro [1]; bovine, 50% fetal calf serum, Serum Half-Lives of AZT Triphosphate Mimic Prodrugs, Table 7, 37° C., 500 μM, time points through 48 hours",1.5 h
same,half-life at 500 μM,"in vitro [1]; bovine, 50% fetal calf serum, Serum Half-Lives of Gemcitibine Diphosphate Mimics and Their Prodrugs, Table 8, 37° C., 500 μM, time points through 48 hours",2.5 h
same,"Half-Life, Cell Extract Half-Lives of AZT 5'-α-P-borano-β,γ-(difluoromethylene) triphosphate Prodrugs","in vitro [3]; Table 10, 50% CEM cell extract, 37° C., 500 μM, time points through 48 hours",.25 h
same,"Half-Life, Cell Extract Half-Lives of Gemcitibine 5'-Methylendiphosphonate and its Prodrugs",in vitro [3]; [6],.25 h
same,half-life at 500 μM,"in vitro [3]; human, 50% CEM cell extract",0.25 h
"Cc1cn([C@H]2C[C@H](N=[N+]=[N-])[C@@H](COP(=O)(O)NP(=O)(O)O)O2)c(=O)[nH]c1=O [Compound 8, 3′-azido-3′-deoxythymidine 5′-imidodiphosphate]",Ki,[2],4400 nM
"BP(=O)(OC[C@H]1O[C@@H](n2cc(C)c(=O)[nH]c2=O)C[C@@H]1N=[N+]=[N-])OP(=O)(O)C(F)P(=O)(O)O (stereo partly drawn) [Compound 25, 3′-Azido-3′-deoxythymidine 5′-α-P-borano-β,γ-(fluoromethylene)triphosphate]",Ki,[2],27 nM
"Cc1cn(C2CC(N=[N+]=[N-])C(COP(O)(=S)OP(=O)(O)C(F)(F)P(=O)(O)O)O2)c(=O)[nH]c1=O (stereo not drawn) [Compound 29, 3′-Azido-3′-deoxythymidine 5′-α-P-thio-β,γ-(difluoromethylene)triphosphate]",Ki,[2],90 nM
"CC(C)(C)C(=O)SCCOP(=O)(O)CP(=O)(OCCSC(=O)C(C)(C)C)OC[C@H]1O[C@@H](n2ccc(N)nc2=O)C(F)(F)[C@@H]1O (stereo partly drawn) [Compound 76, 2′-deoxy-2′,2′-difluorocytidine 5′-di-α, β-O—(S-pivaloyl-2-thioethyl)-α,β-methylenediphosphonate]","Half-Life, Serum Half-Lives of Gemcitibine Diphosphate Mimics and Their Prodrugs","in vitro [1]; Table 8, 50% fetal calf serum, 37° C., 500 μM, time points through 48 hours",>48 h
same,S. aureus MIC,Staphylococcus aureus; [4],25 µg/mL
same,S. aureus MIC,Staphylococcus aureus; [5],(35) μM
same,"Half-Life, Cell Extract Half-Lives of Gemcitibine 5'-Methylendiphosphonate and its Prodrugs",in vitro [3]; [6],37 h
